“Also recorded” adds a separate entry of the source.
What was measured:
[1] = tested on: activated endothelial cells in the zebrafish embryo; assay: Quantitative in vivo EC proliferation assay (whole animal Phy-V002 ELISA); conditions: ~20 hpf embryos treated for 28 hours
Protocol: Quantitative in vivo EC proliferation assay: Embryos were fixed by Dent's fixative (DMSO/methanol=1/3) at room temperature (23+2° C.) for 3 hours, dehydrated to 100% EtOH following standard dehydration procedures. Embryos were then permeabilized, rehydrated, treated with horseradish peroxidase (HRP) suppressor to inhibit endogenous HRP. After treatment with 1 M NH4Cl at room temperature for 3 hours to quench autofluorescence, embryos were then blocked and incubated with Phy-V002 mAb following a standard procedure (see Westerfield, supra). After washing with PBST, embryos were incubated with HRP-conjugated secondary antibody. QuantaBlu (Pierce) was used as the fluorescence enzyme substrate; the stained EC was quantified by measuring the fluorescence units of the enzymatic end product at 315-340 nm (excitation)/370-470 nm (emission) using SPECTRAmax Gemini microplate reader (Molecular Devices).
Drug effect on EC proliferation was calculated by the following formula: [formula]

[2] = tested on: angiogenic vessel growth in zebrafish embryos; assay: Quantitative in vivo microplate assay using Phy-V001 mAb; conditions: for effect on angiogenic vessel development (discussion summary): 2 dpf and 3 dpf stages; for Vessel Reduction (%) Zebrafish: single dosing, Concentration SU5416 2 μM, Flavopiridol 3 μM
[3] = tested on: angiogenic vessel development in zebrafish embryos; assay: Whole mount immunostaining with Phy-V001 of drug-treated embryos; assay type: in vivo; conditions: for vasculature compared to controls: various concentrations; for vasculature compared to controls / ISV staining by Phy-V001: at 3 dpf; for ISV staining by Phy-V001: 48 hours
[4] = tested on: vessel formation in zebrafish embryos; assay: In vivo vessel formation assay (Phy-V002 staining); conditions: 2 dpf embryos
Source text: In vivo vesselformation assay: Embryos were processed as described in “In vivo EC migration Assay,” supra, and examined by fluorescence microscopy. Images of stained embryos were captured by CCD camera and analyzed by Adobe Photoshop software. Higher magnification (10×) images of control and drug treated embryos at the region where vessel defects were observed were quantitated by morphometric analysis (Signal (S)=[area (pixel) X signal intensity]) using Scion Image program. Percent (%) inhibition in vessel formation can be calculated by the following formula: [formula] Results 1. Quantitative in Vivo EC Proliferation Assay

[5] = tested on: zebrafish embryos; assay: Embryo death and body malformation after drug treatment; assay type: in vivo
Protocol: Assay validation with small molecule drugs: Using the whole mount immunostaining technique described supra, several small molecule drugs were tested. […] Flavopiridol is a cyclin-dependent kinase inhibitor known to inhibit cell proliferation (Senderowicz, Invest. New Drugs 17:313-20, 1999). COL-1 and COL-3 are inhibitors of matrix metalloproteases (MMPs), which are known to play a crucial role in vascular endothelial cell migration (Seftor et al. 2001). During early embryo development (˜12 hpf), many structures including the notochord, the somites, and the heart are beginning to form and these structures directly affect both vasculargenesis and angiogenesis. After 20 hpf, since the DA and the PCV are fully formed, drug effects on vessel formation are less likely to be secondary effects (indirect effects due to damage to the notochord, somites, or heart). Therefore, ˜1 dpf was chosed as the time point to initiate drug treatment. Embryos were incubated with varying concentrations of each drug continuously for 48 hours. Drug effects were examined at 2 dpf and 3 dpf.

[6] = tested on: Mouse Tumor; conditions: 12 mg/ml/day, dosing frequency 18; cited from earlier work
[7] = tested on: EC; conditions: serum of patients treated with flavopiridol; cited from earlier work
[8] = tested on: zebrafish embryos; assay: Embryo growth inhibition by body length; assay type: in vivo; conditions: 5 μM for 4 days
Protocol: Drugs cause growth retardation: Many drugs cause growth inhibition. […] 1 dpf embryos are treated with identified “hit” drugs at various concentrations for 4 days. Body length is measured at 5 dpf and plotted against drug concentration. Normal untreated and 0.1% DMSO treated embryos are used as controls. At least 10 embryos are used for each condition.

Question: With `COc1cc2c(cc1O)CC[C@@H]1[C@@H]2CC[C@]2(C)[C@@H](O)CC[C@@H]12` [2-methoxyestradiol] as the compound, how does the “% inhibition in EC proliferation, dose response” value [1] read?
Answer: Its value is “% inhibition in EC proliferation increasing proportionally with drug concentration”.

Question: For `NC(=O)C1=C(O)C[C@@H]2C[C@@H]3Cc4cccc(O)c4C(=O)C3=C(O)[C@]2(O)C1=O` [COL-3], which “maximum inhibition of angiogenic vessel growth” value ([2]; 5 μM, at 2 dpf) is on record?
Answer: Its value is ~39%.

Question: What about the “inhibition on angiogenic vessel development” value ([2]; 1 to 10 μM, at 3 dpf) of the same compound?
Answer: Its value is ~25%.

Question: And the “effect on angiogenic vessel development (discussion summary)” value [2]?
Answer: The value was “significant inhibitory effect”.

Question: What about the “Change in vessel pattern” value ([3]; at 2 dpf, concentration not given) of the same compound?
Answer: Its value is “caused a loss of a few ISVs”.

Question: What about the “vasculature compared to controls” value [3] of the same compound?
Answer: The value was “appeared unchanged”.

Question: Which “inhibition in angiogenic vessel growth” value ([2]; 48 hours treatment, at 3 dpf, surviving embryos) does the source give for `Cc1cc(C)c(/C=C2\C(=O)Nc3ccccc32)[nH]1` [SU5416] here?
Answer: The value was “No significant inhibition”.

Question: What about the inhibition at 15 µM ([2]; Danio rerio, 15 μM, at 2 dpf, read-out: maximum inhibition in vessel growth) of the same compound?
Answer: Its inhibition at 15 µM is ~40.5%.

Question: And the “Vessel Reduction (%) Zebrafish” value [2]?
Answer: Its value is “˜40.5%”.

Question: And the “vessel formation (cranial vessels and ISVs)” value ([4]; 1 μM)?
Answer: Its value is “partially missing; also recorded: abnormal when compared to control embryos”.

Question: And the “vessel formation (cranial vessels and ISVs)” value ([4]; 2.5 μM and higher)?
Answer: The value was “nearly completely absent”.

Question: What about the “body formation of surviving embryos” value ([5]; 20 μM, at 2 dpf) of the same compound?
Answer: Its value is “truncated body formation”.

Question: And the “Vessel Reduction (%) Mouse Tumor” value [6]?
Answer: The value was “˜42%”.

Question: And the “Inhibition of angiogenic vessel development (Phy-V001 staining)” value (“Inhibition … (Phy-V001 staining)” below) ([3]; 10 μM, 24 hours, at 2 dpf)?
Answer: The value was “inhibitory effect was not obvious”.

Question: What about the “Inhibition … (Phy-V001 staining)” value ([3]; 15 μM, 24 hours, at 2 dpf) of the same compound?
Answer: Its value is “dramatic decrease in Phy-V001 staining”.

Question: And the “Inhibition … (Phy-V001 staining)” value ([3]; 20 μM, at 2 dpf, surviving embryos)?
Answer: Its value is “ISVs were barely detectable”.

Question: And the “ISV staining by Phy-V001” value ([3]; 10 and 15 μM)?
Answer: The value was “staining was weaker”.

Question: For `Cc1[nH]c(/C=C2\C(=O)Nc3ccc(Br)cc32)c(C)c1CCC(=O)O` [SU9518], which angiogenic vessel inhibition ([2]; 0.1 μM to 100 μM, at 2 dpf) is on record?
Answer: The angiogenic vessel inhibition was “did not result in any angiogenic vessel inhibition”.

Question: And the “effect on angiogenic vessel development (discussion summary)” value [2]?
Answer: The value was “did not have any effect”.

Question: And the “Change in vessel development compared to control” value ([3]; 0.1 μM to 100 μM, at 2 dpf)?
Answer: Its value is “did not cause a change in vessel development”.

Question: What about the “vasculature compared to controls” value [3] of the same compound?
Answer: Its value is “appeared unchanged”.

Question: For `CN1CC[C@H](c2c(O)cc(O)c3c(=O)cc(-c4ccccc4Cl)oc23)[C@H](O)C1` [flavopiridol], which “Vessel Reduction (%) EC Proliferation” value [7] is on record?
Answer: Its value is “˜32%”.

Question: And the “Vessel Reduction (%) EC Proliferation, range” value [7]?
Answer: The value was “(8-70% range)”.

Question: And the “% inhibition in EC proliferation, dose response” value [1]?
Answer: Its value is “% inhibition in EC proliferation increasing proportionally with drug concentration”.

Question: And the inhibition at 1 µM ([2]; Danio rerio, 1 μM, at 2 dpf)?
Answer: The inhibition at 1 µM was 13%.

Question: What about the inhibition at 3 µM ([2]; Danio rerio, 3 μM, at 2 dpf, read-out: maximum inhibition of angiogenic vessel growth) of the same compound?
Answer: Its inhibition at 3 µM is ~27%.

Question: And the inhibition at 5 µM ([2]; Danio rerio, 5 μM, at 3 dpf)?
Answer: Its inhibition at 5 µM is ~17%.

Question: What about the “Vessel Reduction (%) Zebrafish” value [2] of the same compound?
Answer: Its value is “˜27%”.

Question: What about the “overall embryo growth, body length” value [8] of the same compound?
Answer: Its value is “caused inhibition of overall embryo growth”.

Question: What about the “body formation of surviving embryos” value ([5]; 5 μM, at 2 dpf) of the same compound?
Answer: The value was “truncated body formation”.

Question: And the embryos died ([5]; 5 μM, at 2 dpf)?
Answer: The embryos died was ~16%.

Question: What about the embryos died ([5]; 7 μM, at 2 dpf) of the same compound?
Answer: The embryos died was ~20%.

Question: What about the embryos died ([5]; 7 μM, at 3 dpf) of the same compound?
Answer: The embryos died was “All the 7 μM flavopiridol treated embryos died”.

Question: What about the “Inhibition … (Phy-V001 staining)” value ([3]; 1 μM, at 2 dpf) of the same compound?
Answer: The value was “inhibitory effect was not obvious”.

Question: What about the “Inhibition … (Phy-V001 staining)” value ([3]; 3 μM, at 2 dpf) of the same compound?
Answer: Its value is “ISV staining in the trunk region decreased”.

Question: And the “Inhibition … (Phy-V001 staining)” value ([3]; 5 μM, at 2 dpf, surviving embryos)?
Answer: Its value is “dramatic decrease in ISV staining”.

Question: What about the “Inhibition … (Phy-V001 staining)” value ([3]; 7 μM, at 2 dpf, surviving embryos) of the same compound?
Answer: The value was “decreased staining in ISVs”.

Question: What about the “ISV staining by Phy-V001” value ([3]; 1, 3, and 5 μM) of the same compound?
Answer: The value was “staining intensity appeared weaker”.

— patent US20070134233A1, “Compositions and methods relating to organ-, tissue-, and cell-specific antibodies” (Phylonix Pharmaceuticals, Inc., priority 2004, published 2007)
